Reference: patent US5108993A, “Pharmaceutical composition comprising zidovudine and inosiplex or components thereof for the treatment of aids-related syndromes” (priority 1988, dated 1992)
Where two headings read alike, the source gives them in different places.

How the values were obtained:
[1] = Clinical Study 1: plasma/serum AZT by radioimmunoassay, AZT alone then AZT + inosiplex; format: in vivo, AIDS patients; settings: for Cmax: plasma, mean peak plasma level of AZT; for concentration: read-out: mean nadir level of AZT
Experimental: (§1) The patients were then placed on the following dosing regimen:
(§2) No other drugs that are believed to affect hepatic glucuronidation were administered.

[2] = Clinical Study No. 2: plasma/serum AZT by radioimmunoassay, AZT alone then AZT + p-acetamidobenzoic acid; format: in vivo, AIDS patients; settings: for Cmax: human, plasma, po, 100 mg, mean peak plasma level of AZT; for concentration: read-out: mean nadir level of AZT
Experimental: as §1, §2

[3] = Clinical Study 3: plasma/serum AZT by radioimmunoassay, AZT alone then AZT + inosine + INPX; format: in vivo, AIDS patients; settings: for Cmax: human, plasma, po, 100 mg, mean peak plasma level of AZT; for concentration: read-out: mean nadir level of AZT
Experimental: as §1, §2

[4] = tested on: bone marrow; assay: Bone marrow toxicity of AZT in the study patients before the study; format: in vivo, AIDS patients; settings: 200 mg AZT orally every four hours (1,200 mg daily), and again on 800 mg daily for 2 months; 5 patients
[5] = Pharmacokinetics studies of AZT 100 mg every 6 hours before the study; format: in vivo, AIDS patients; settings: 100 mg AZT every 6 hours (400 mg total daily dose)
[6] = cited from earlier work
[7] = tested on: HIV (Human Immunodeficiency Virus); settings: cited from earlier work
[8] = tested on: HIV; settings: cited from earlier work
[9] = tested on: RNA-dependent DNA-polymerase (viral reverse transcriptase); settings: in vitro incorporation into DNA growing chains, DNA chain terminated; cited from earlier work
[10] = with zidovudine, GB 2 181 128 A

In the case of `Cc1cn([C@H]2C[C@H](N=[N+]=[N-])[C@@H](CO)O2)c(=O)[nH]c1=O` [AZT, 3'-azido-3'-deoxythymidine], the “AZT serum level at time 0” value ([1]; before the taking of AZT alone or of AZT and INPX) is reported as 0.013 µM, the Cmax ([1]; human, po, 100 mg, 100 mg AZT with 1 gm INPX every 6 hrs, day 14, standard deviation 1.5 μM, range 0.14 to 4.4 μM) is reported as 2250 nM and the Cmax ([1]; human, po, 100 mg, AZT alone 100 mg oral every 6 hours, day 7, standard deviation 0.75 μM, range 0.06 to 2.52 μM) is reported as 1470 nM. The half-life ([1]; human, serum, po, 100 mg, read-out: Serum half-life of the elimination phase (T1/2)) was 44 min, the concentration ([1]; 100 mg AZT with 1 gm INPX every 6 hrs, day 14, standard deviation 0.25 μM, range 0.15 to 0.84 μM) was 460 nM and the concentration ([1]; AZT alone 100 mg oral every 6 hours, day 7, standard deviation 0.19 μM, range 0.06 to 0.5 μM) was 240 nM. The “serum level at time 0” value ([2]; before the taking of AZT alone or of AZT and p-acetamidobenzoic acid) was 10 nM, the Cmax ([2]; 100 mg AZT with 1 gm p-acetamidobenzoic acid every 6 hrs, day 14, standard deviation 1.8 μM, range 0.16 to 4.7 μM) was 2450 nM and the Cmax ([2]; AZT alone 100 mg oral every 6 hours, day 7, standard deviation 0.75 μM, range 0.04 to 2.46 μM) was 1520 nM. The concentration ([2]; 100 mg AZT with 1 gm p-acetamidobenzoic acid every 6 hrs, day 14, standard deviation 0.28 μM, range 0.14 to 0.88 μM) was 490 nM, the concentration ([2]; AZT alone 100 mg oral every 6 hours, day 7, standard deviation 0.19 μM, range 0.04 to 0.6 μM) was 250 nM and the “AZT serum level at time 0” value ([3]; before the taking of AZT alone or of AZT, inosine and INPX) was 0.016 µM. It also gave a Cmax ([3]; 100 mg AZT with 1 gm inosine and 1 gm INPX every 6 hrs, day 14, standard deviation 1.3 μM, range 0.15 to 4.2 μM) of 2760 nM, a Cmax ([3]; AZT alone 100 mg oral every 6 hours, day 7, standard deviation 0.70 μM, range 0.03 to 2.16 μM) of 1410 nM and a concentration ([3]; 100 mg AZT with 1 gm inosine and 1 gm INPX every 6 hrs, day 14, standard deviation 0.26 μM, range 0.11 to 0.82 μM) of 510 nM. The concentration ([3]; AZT alone 100 mg oral every 6 hours, day 7, standard deviation 0.16 μM, range 0.06 to 0.8 μM) was 210 nM, the bone marrow toxicity [4] was “developped bone marrow toxicity” and the plasma levels [5] was “below the therapeutical threshold”. For the same molecule, the half-life ([6]; average) was “about 1 hour”, the metabolic inactivation ([6]; liver) was “rapidly inactivated via glucuronidation in the liver” and the “inhibition of in vitro replication of some retroviruses, including HIV” value [7] was “inhibitor of the in vitro replication of some retroviruses, including HIV”.

For `Nc1nc2c(ncn2COCCO)c(=O)[nH]1` [acyclovir], the effect on zidovudine [8, 10] is listed as “synergistic effect”.

In the case of `COc1cc(C(=O)OCCCN2CCCN(CCCOC(=O)c3cc(OC)c(OC)c(OC)c3)CC2)cc(OC)c1OC` [dilazep], the effect on zidovudine [8, 10] is given as “synergistic effect”.

In the case of `OCCN(CCO)c1nc(N2CCCCC2)c2nc(N(CCO)CCO)nc(N3CCCCC3)c2n1` [dipyridamole], the effect on zidovudine [8, 10] is listed as “synergistic effect”.

For `O=C(O)P(=O)(O)O` [foscarnet], the effect on zidovudine [8, 10] is given as “synergistic effect”.

In the case of `COc1cc(C(=O)OCCCN(C)CCN(C)CCCOC(=O)c2cc(OC)c(OC)c(OC)c2)cc(OC)c1OC` [hexobendine], the effect on zidovudine [8, 10] is listed as “synergistic effect”.

In the case of `c1ccc([C@H]2CN3CCSC3=N2)cc1` [levamisole], the effect on zidovudine [8] is given as “synergistic effect”.

In the case of `Cc1cccc(C)c1NC(=O)CN1CCN(CCCC(c2ccc(F)cc2)c2ccc(F)cc2)CC1` [lidoflazine], the effect on zidovudine [8, 10] is given as “synergistic effect”.

In the case of `NC(=O)C1CN(CC(=O)Nc2c(Cl)cccc2Cl)CCN1CCCC(c1ccc(F)cc1)c1ccc(F)cc1` (centres unmarked) [mioflazine], the effect on zidovudine [8, 10] is given as “synergistic effect”.

For `COc1ccc(Cc2nccc3cc(OC)c(OC)cc23)cc1OC` [papaverine], the effect on zidovudine [8, 10] is given as “synergistic effect”.

In the case of `CCCN(CCC)S(=O)(=O)c1ccc(C(=O)O)cc1` [probenecid], the effect on zidovudine [8, 10] is listed as “synergistic effect”.

For `Cc1ccc(C(=O)Nc2ccc(S(=O)(=O)O)c3cc(S(=O)(=O)O)cc(S(=O)(=O)O)c23)cc1NC(=O)c1cccc(NC(=O)Nc2cccc(C(=O)Nc3cc(C(=O)Nc4ccc(S(=O)(=O)O)c5cc(S(=O)(=O)O)cc(S(=O)(=O)O)c45)ccc3C)c2)c1` [suramine], the effect on zidovudine [8, 10] is listed as “synergistic effect”.

For `Cc1cn([C@H]2C[C@H](N=[N+]=[N-])[C@@H](CO[P@](=O)(O)O[P@](=O)(O)OP(=O)(O)O)O2)c(=O)[nH]c1=O` [zidovudine triphosphate], the “effect on RNA-dependent DNA-polymerase (viral reverse transcriptase)” value [9] is given as “incorporated into the DNA growing chains by viral reverse transcriptase, whereby DNA chain is terminated”.

For alpha-interferon, the effect on zidovudine [8, 10] is given as “synergistic effect”.

In the case of “gamma-interferon: alpha-, beta, and gamma-interferons”, the effect on zidovudine [8, 10] is listed as “synergistic effect”.
